The values below come from ChEMBL document CHEMBL3132791, “Improved synthesis of 4-/6-substituted 2-carboxy-1H-indole-3-propionic acid derivatives and structureactivity relationships as GPR17 agonists” (Medchemcomm, 2014).

The source made the active and inactive calls. The rule behind the calls is not given here. Bounds are passed on as bounds.

As usually defined, the EC50 is the concentration that produces a half-maximal response.

T1 sequence (Q13304 whole entry): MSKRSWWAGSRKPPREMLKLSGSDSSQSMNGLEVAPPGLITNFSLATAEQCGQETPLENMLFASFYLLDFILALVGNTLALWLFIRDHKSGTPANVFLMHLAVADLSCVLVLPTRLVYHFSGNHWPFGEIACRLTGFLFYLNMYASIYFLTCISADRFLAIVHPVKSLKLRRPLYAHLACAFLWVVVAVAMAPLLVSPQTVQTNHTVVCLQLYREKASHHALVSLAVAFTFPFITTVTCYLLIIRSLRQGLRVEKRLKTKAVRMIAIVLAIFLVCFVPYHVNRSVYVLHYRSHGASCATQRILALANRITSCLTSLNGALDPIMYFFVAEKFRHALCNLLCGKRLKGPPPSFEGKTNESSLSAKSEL

The first assay has as its target T1, Uracil nucleotide/cysteinyl leukotriene receptor (Homo sapiens, UniProt Q13304). The assay can be described thus: Antagonist activity at human GPR17 receptor transfected in 1321N1 astrocytoma cells assessed as intracellular calcium mobilization by flurometric assay. The format is functional, cell-based. (In general: Calcium flux is commonly read through the fluorescence of an indicator in the cells.)
With `COc1cc(OC)c2c(CCC(=O)O)c(C(=O)O)[nH]c2c1`, the outcome was inactive.

The target in the next assay is T1, Uracil nucleotide/cysteinyl leukotriene receptor. The assay is described as follows: Agonist activity at human GPR17 receptor transfected in 1321N1 astrocytoma cells assessed as induction of intracellular calcium mobilization by fluorimetric assay. The format is functional, cell-based.
In the case of `O=C(O)CCc1c(C(=O)O)[nH]c2cc(Br)ccc12`, the concentration for a half-maximal effect (EC50) is 2.24 µM. Regarding `O=C(O)CCc1c(C(=O)O)[nH]c2cc(Br)cc(Br)c12`, the EC50 amounted to 0.202 µM.

As for `O=C(O)CCc1c(C(=O)O)[nH]c2cc(Cl)c(F)c(Cl)c12`, the EC50 stood at 52 µM.

For the molecule `O=C(O)CCc1c(C(=O)O)[nH]c2cc(Cl)cc(Cl)c12`, the EC50 came out at 0.331 µM. As for `O=C(O)CCc1c(C(=O)O)[nH]c2cc(C(F)(F)F)cc(C(F)(F)F)c12`, the 50% effective concentration (EC50) was 17.1 µM. Regarding `O=C(O)CCc1c(C(=O)O)[nH]c2cccc(I)c12`, the EC50 stood at 36.8 µM.

On to `COc1cc(OC)c2c(CCC(=O)O)c(C(=O)O)[nH]c2c1`, for which the half-maximal effective concentration (EC50) was > 100 µM. Turning to `O=C(O)CCc1c(C(=O)O)[nH]c2cccc(Br)c12`, the EC50 was found to be 45.5 µM.
